{
  "source": "patent US20260103461A1",
  "about": "“ESTROGEN RECEPTOR MODULATORS AND USES THEREOF” (Olema Pharmaceuticals, Inc., priority 2022, published 2026)",
  "data": [
    {"target": "T1, estrogen receptor (Homo sapiens, UniProt P03372)", "T1 construct": "endogenous in cells; host or cells: ECC-1 cells", "T1 sequence (P03372 1-595)": "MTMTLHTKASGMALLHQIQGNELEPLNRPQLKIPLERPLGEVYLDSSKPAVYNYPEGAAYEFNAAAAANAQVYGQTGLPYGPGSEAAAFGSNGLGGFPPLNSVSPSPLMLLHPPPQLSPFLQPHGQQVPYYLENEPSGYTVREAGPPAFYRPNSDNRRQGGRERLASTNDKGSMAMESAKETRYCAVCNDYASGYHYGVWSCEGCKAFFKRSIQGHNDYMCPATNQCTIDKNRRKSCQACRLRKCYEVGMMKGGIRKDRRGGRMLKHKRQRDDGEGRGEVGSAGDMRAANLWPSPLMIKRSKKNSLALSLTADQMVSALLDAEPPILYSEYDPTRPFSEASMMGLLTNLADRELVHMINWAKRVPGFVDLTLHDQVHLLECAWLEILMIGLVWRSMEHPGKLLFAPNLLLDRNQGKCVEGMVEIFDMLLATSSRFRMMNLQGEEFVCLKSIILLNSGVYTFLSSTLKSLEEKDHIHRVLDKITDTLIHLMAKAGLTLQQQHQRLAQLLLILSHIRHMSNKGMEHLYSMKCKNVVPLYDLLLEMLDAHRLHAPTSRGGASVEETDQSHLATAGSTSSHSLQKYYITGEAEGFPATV", "assay": "AP (alkaline phosphatase) assay in ECC-1 cells, agonist mode and antagonist mode", "assay_type": "cell-based", "settings": "3 days, absence of E2 (agonist mode) or 500 pM E2 (antagonist mode), AP activity normalized to 500 pM E2 alone", "experimental": "ECC-1 cells were trypsinized and resuspended in hormone-depleted media and plated at a density of 15 k cells per well into a 96-well plate for at least 4 hours. Cells were treated with test compounds in the absence of E2 (for agonist mode) or in the presence of 500 pM E2 (for antagonist mode) for 3 days and plates were subsequently frozen at −80° C. Thawed plates were incubated with a chromogenic substrate of AP, p-nitrophenyl phosphate (Thermo Fisher Scientific), for 40 minutes at 42° C., and absorbances were read at 405 nm. AP activity was normalized to the activity of 500 pM E2 alone.\nThe compound numbers correspond to the compound numbers of Table 1 and 2. Compounds having an activity designated as “+” provided estrogen receptor agonism having (i) at least 80% increase in the E2-normalized signal in the AP assay (agonist mode) and (ii) no more than 80% reduction in the E2-normalized signal in the AP assay (antagonist mode). Compounds having an activity designated as “++” provided estrogen receptor antagonism having (i) between 10% and 80% increase in the E2-normalized signal in the AP assay (agonist mode) and (ii) between 10% and 80% reduction in the E2-normalized signal in the AP assay (antagonist mode).", "values": [
      {"smiles": "C[C@@H]1Cc2c([nH]c3ccccc23)[C@@H](c2ncc(O[C@@H]3CCN(CCCF)C3)s2)N1CC(C)(C)F", "note": "[Example I-11, 2-[(1S,3R)-2-(2-fluoro-2-methyl-propyl)-3-methyl-1,3,4,9-tetrahydropyrido[3,4-b]indol-1-yl]-5-[(3R)-1-(3-fluoropropyl)pyrrolidin-3-yl]oxy-thiazole]", "Activity (estrogen receptor modulation, agonism and antagonism)": "++ (estrogen receptor antagonism having (i) between 10% and 80% increase in the E2-normalized signal in the AP assay (agonist mode) and (ii) between 10% and 80% reduction in the E2-normalized signal in the AP assay (antagonist mode))"},
      {"smiles": "C[C@@H]1Cc2c([nH]c3ccccc23)[C@@H](c2cnc(O[C@H]3CN(CCCF)C[C@@H]3F)s2)N1CC(F)(F)CO", "note": "[Example I-32, 2,2-difluoro-3-[(1S,3R)-1-[2-[(3S,4S)-4-fluoro-1-(3-fluoropropyl)pyrrolidin-3-yl]oxythiazol-5-yl]-3-methyl-1,3,4,9-tetrahydropyrido[3,4-b]indol-2-yl]propan-1-ol]", "Activity (estrogen receptor modulation, agonism and antagonism)": "+ (estrogen receptor agonism having (i) at least 80% increase in the E2-normalized signal in the AP assay (agonist mode) and (ii) no more than 80% reduction in the E2-normalized signal in the AP assay (antagonist mode))"},
      {"smiles": "C[C@@H]1Cc2c([nH]c3ccccc23)[C@@H](c2cnc(O[C@H]3CCCN(CCCF)C3)s2)N1CC(F)(F)CO", "note": "[Example I-38]", "Activity (estrogen receptor modulation, agonism and antagonism)": "+ (estrogen receptor agonism having (i) at least 80% increase in the E2-normalized signal in the AP assay (agonist mode) and (ii) no more than 80% reduction in the E2-normalized signal in the AP assay (antagonist mode))"},
      {"smiles": "C[C@@H]1Cc2c([nH]c3ccccc23)[C@@H](c2cnc(O[C@@H]3CCN(CCCF)C3)s2)N1CC(F)(F)CO", "note": "[Example I-28, 2,2-difluoro-3-[(1S,3R)-1-[2-[(3R)-1-(3-fluoropropyl)pyrrolidin-3-yl]oxythiazol-5-yl]-3-methyl-1,3,4,9-tetrahydropyrido[3,4-b]indol-2-yl]propan-1-ol]", "Activity (estrogen receptor modulation, agonism and antagonism)": "+++ (estrogen receptor antagonism (i) with pIC50 greater than 7.5 and at least a 10% reduction in the E2-normalized signal in the AP assay (antagonist mode); and no more than 10% increase in E2-normalized signal in the AP assay (agonist mode))"},
      {"smiles": "CCCN1CC(Oc2ncc([C@@H]3c4[nH]c5ccccc5c4C[C@@H](C)N3CC(C)(C)F)s2)C1", "note": "[Example I-3, 5-[(1S,3R)-2-(2-fluoro-2-methylpropyl)-3-methyl-1H,2H,3H,4H,9H-pyrido[3,4-b]indol-1-yl]-2-[(1-propylazetidin-3-yl)oxy]-1,3-thiazole]", "Activity (estrogen receptor modulation, agonism and antagonism)": "++ (estrogen receptor antagonism having (i) between 10% and 80% increase in the E2-normalized signal in the AP assay (agonist mode) and (ii) between 10% and 80% reduction in the E2-normalized signal in the AP assay (antagonist mode))"},
      {"smiles": "C[C@@H]1Cc2c([nH]c3ccccc23)[C@@H](c2ccc(O[C@@H]3CCN(CCC(F)F)C3)s2)N1CC(C)(C)F", "note": "[Example I-15, (1S,3R)-1-[5-[(3R)-1-(3,3-difluoropropyl)pyrrolidin-3-yl]oxy-2-thienyl]-2-(2-fluoro-2-methyl-propyl)-3-methyl-1,3,4,9-tetrahydropyrido[3,4-b]indole]", "Activity (estrogen receptor modulation, agonism and antagonism)": "+ (estrogen receptor agonism having (i) at least 80% increase in the E2-normalized signal in the AP assay (agonist mode) and (ii) no more than 80% reduction in the E2-normalized signal in the AP assay (antagonist mode))"},
      {"smiles": "C[C@@H]1Cc2c([nH]c3ccccc23)[C@@H](c2cnc(O[C@@H]3C[C@H](C)N(CCCF)C3)s2)N1CC(F)(F)CO", "note": "[Example I-29, 2,2-difluoro-3-((1S,3R)-1-(2-(((3R,5S)-1-(3-fluoropropyl)-5-methylpyrrolidin-3-yl)oxy)thiazol-5-yl)-3-methyl-1,3,4,9-tetrahydro-2H-pyrido[3,4-b]indol-2-yl)propan-1-ol]", "Activity (estrogen receptor modulation, agonism and antagonism)": "+ (estrogen receptor agonism having (i) at least 80% increase in the E2-normalized signal in the AP assay (agonist mode) and (ii) no more than 80% reduction in the E2-normalized signal in the AP assay (antagonist mode))"},
      {"smiles": "C[C@@H]1Cc2c([nH]c3ccccc23)[C@@H](c2ccc(O[C@@H]3CCN(CCCF)C3)s2)N1CC(F)(F)F", "note": "[Example I-20, (1S,3R)-1-[5-[(3R)-1-(3-fluoropropyl)pyrrolidin-3-yl]oxy-2-thienyl]-3-methyl-2-(2,2,2-trifluoroethyl)-1,3,4,9-tetrahydropyrido[3,4-b]indole]", "Activity (estrogen receptor modulation, agonism and antagonism)": "++ (estrogen receptor antagonism having (i) between 10% and 80% increase in the E2-normalized signal in the AP assay (agonist mode) and (ii) between 10% and 80% reduction in the E2-normalized signal in the AP assay (antagonist mode))"},
      {"smiles": "C[C@@H]1Cc2c([nH]c3ccccc23)[C@@H](c2sc(OC3CN(CCCF)C3)cc2F)N1CC(F)(F)CO", "note": "[Example I-26, 2,2-difluoro-3-[(1S,3R)-1-[3-fluoro-5-[1-(3-fluoropropyl)azetidin-3-yl]oxy-2-thienyl]-3-methyl-1,3,4,9-tetrahydropyrido[3,4-b]indol-2-yl]propan-1-ol]", "Activity (estrogen receptor modulation, agonism and antagonism)": "+++ (estrogen receptor antagonism (i) with pIC50 greater than 7.5 and at least a 10% reduction in the E2-normalized signal in the AP assay (antagonist mode); and no more than 10% increase in E2-normalized signal in the AP assay (agonist mode))"},
      {"smiles": "C[C@@H]1Cc2c([nH]c3ccccc23)[C@@H](c2ncc(O[C@H]3CCN(CCCF)C3)s2)N1CC(C)(C)F", "note": "[Example I-6, 2-[(1S,3R)-2-(2-fluoro-2-methylpropyl)-3-methyl-1H,2H,3H,4H,9H-pyrido[3,4-b]indol-1-yl]-5-{[(3S)-1-(3-fluoropropyl)pyrrolidin-3-yl]oxy}-1,3-thiazole]", "Activity (estrogen receptor modulation, agonism and antagonism)": "++ (estrogen receptor antagonism having (i) between 10% and 80% increase in the E2-normalized signal in the AP assay (agonist mode) and (ii) between 10% and 80% reduction in the E2-normalized signal in the AP assay (antagonist mode))"},
      {"smiles": "C[C@@H]1Cc2c([nH]c3ccccc23)[C@@H](c2ncc(O[C@@H]3CCN(CCCF)C3)s2)N1CC(F)(F)CO", "note": "[Example I-24, 2,2-difluoro-3-[(1S,3R)-1-[5-[(3R)-1-(3-fluoropropyl)pyrrolidin-3-yl]oxythiazol-2-yl]-3-methyl-1,3,4,9-tetrahydropyrido[3,4-b]indol-2-yl]propan-1-ol]", "Activity (estrogen receptor modulation, agonism and antagonism)": "++ (estrogen receptor antagonism having (i) between 10% and 80% increase in the E2-normalized signal in the AP assay (agonist mode) and (ii) between 10% and 80% reduction in the E2-normalized signal in the AP assay (antagonist mode))"},
      {"smiles": "C[C@@H]1Cc2c([nH]c3ccccc23)[C@@H](c2cnc(O[C@@H]3CCN(CCCF)C3)s2)N1CC(C)(C)F", "note": "[Example I-23, 5-[(1S,3R)-2-(2-fluoro-2-methyl-propyl)-3-methyl-1,3,4,9-tetrahydropyrido[3,4-b]indol-1-yl]-2-[(3R)-1-(3-fluoropropyl)pyrrolidin-3-yl]oxy-thiazole]", "Activity (estrogen receptor modulation, agonism and antagonism)": "+++ (estrogen receptor antagonism (i) with pIC50 greater than 7.5 and at least a 10% reduction in the E2-normalized signal in the AP assay (antagonist mode); and no more than 10% increase in E2-normalized signal in the AP assay (agonist mode))"},
      {"smiles": "C[C@@H]1Cc2c([nH]c3ccccc23)[C@@H](c2sc(O[C@@H]3CCN(CCCF)C3)cc2F)N1CC(F)(F)CO", "note": "[Example I-27, 2,2-difluoro-3-[(1S,3R)-1-[3-fluoro-5-[(3R)-1-(3-fluoropropyl)pyrrolidin-3-yl]oxy-2-thienyl]-3-methyl-1,3,4,9-tetrahydropyrido[3,4-b]indol-2-yl]propan-1-ol]", "Activity (estrogen receptor modulation, agonism and antagonism)": "+++ (estrogen receptor antagonism (i) with pIC50 greater than 7.5 and at least a 10% reduction in the E2-normalized signal in the AP assay (antagonist mode); and no more than 10% increase in E2-normalized signal in the AP assay (agonist mode))"},
      {"smiles": "C[C@@H]1Cc2c([nH]c3ccccc23)[C@@H](c2ccc(O[C@@H]3CCN(CCCF)C3)s2)N1CC(F)F", "note": "[Example I-19, (1S,3R)-2-(2,2-difluoroethyl)-1-[5-[(3R)-1-(3-fluoropropyl)pyrrolidin-3-yl]oxy-2-thienyl]-3-methyl-1,3,4,9-tetrahydropyrido[3,4-b]indole]", "Activity (estrogen receptor modulation, agonism and antagonism)": "+++ (estrogen receptor antagonism (i) with pIC50 greater than 7.5 and at least a 10% reduction in the E2-normalized signal in the AP assay (antagonist mode); and no more than 10% increase in E2-normalized signal in the AP assay (agonist mode))"}
    ]}
  ]
}
